Test results taken from US20150011423A1, “MEANS AND METHODS FOR ASSESSING KIDNEY TOXICITY” (BASF SE, priority 2011, published 2015).
Marks after values point to notes of the source that are not given here.

System: rats
Assay: 28-day repeated dose study in rats with mass spectrometry-based plasma metabolite profiling (GC-MS, LC-MS, SPE-LC-MS); treatment ratios versus control
Details: plasma; for Choline plasmalogen No 02 (putative), treatment ratio versus control / Lysophosphatidylcholine (C17:0), treatment ratio versus control / TAG (C42:9) (DAG-Fragment) (putative), treatment ratio versus control: Table 11b alpha 2 u globulin-nephropathy; for Cytosine, treatment ratio versus control / Glutamate, treatment ratio versus control: Table 6b ACE inhibitor induced like toxicity
[1] = male rats, day 7, high doses except for 1,1,2,2-tetrachloroethane
[2] = male rats, day 14, high doses except for 1,1,2,2-tetrachloroethane
[3] = male rats, day 28, high doses except for 1,1,2,2-tetrachloroethane

Structure (SMILES): ClC(Cl)C(Cl)Cl [1,1,2,2-Tetrachloroethane]
- 3-Hydroxyindole (ratio treated vs control) (m7: male rats, day 7): 1.39
- 4-Hydroxysphinganine (t18:0, Phytosphingosine), total (ratio treated vs control) (m7: male rats, day 7): 2.03
- Glucuronic acid (ratio treated vs control) (m7: male rats, day 7): 3.97
- Glutamate (ratio treated vs control) (m7: male rats, day 7): 2.31
- Nervonic acid (C24:cis[15]1) (ratio treated vs control) (m7: male rats, day 7): 1.09
- Oleic acid (C18:cis[9]1) (ratio treated vs control) (m7: male rats, day 7): 1.11
- Ornithine (ratio treated vs control) (m7: male rats, day 7): 2.10
- Pantothenic acid (ratio treated vs control) (m7: male rats, day 7): 4.46
- Phosphatidylcholine (C18:0, C18:1) (ratio treated vs control) (m7: male rats, day 7): 1.48
- Pseudouridine (ratio treated vs control) (m7: male rats, day 7): 1.17
- Sphingomyelin (d18:1, C16:0) (ratio treated vs control) (m7: male rats, day 7): 1.65
- Sphingomyelin (d18:2, C18:0) (ratio treated vs control) (m7: male rats, day 7): 1.22
- Xylitol (ratio treated vs control) (m7: male rats, day 7): 12.21
- dihomo-gamma-Linolenic acid (C20:cis[8,11,14]3) (ratio treated vs control) (m7: male rats, day 7): 2.56
- 3-Hydroxyindole (ratio treated vs control) (m14: male rats, day 14): 2.05
- 4-Hydroxysphinganine (t18:0, Phytosphingosine), total (ratio treated vs control) (m14: male rats, day 14): 2.04
- Glucuronic acid (ratio treated vs control) (m14: male rats, day 14): 1.20
- Glutamate (ratio treated vs control) (m14: male rats, day 14): 1.80
- Nervonic acid (C24:cis[15]1) (ratio treated vs control) (m14: male rats, day 14): 0.96
- Oleic acid (C18:cis[9]1) (ratio treated vs control) (m14: male rats, day 14): 1.18
- Ornithine (ratio treated vs control) (m14: male rats, day 14): 2.38
- Pantothenic acid (ratio treated vs control) (m14: male rats, day 14): 4.32
- Phosphatidylcholine (C18:0, C18:1) (ratio treated vs control) (m14: male rats, day 14): 1.21
- Pseudouridine (ratio treated vs control) (m14: male rats, day 14): 1.51
- Sphingomyelin (d18:1, C16:0) (ratio treated vs control) (m14: male rats, day 14): 1.34
- Sphingomyelin (d18:2, C18:0) (ratio treated vs control) (m14: male rats, day 14): 0.93
- Xylitol (ratio treated vs control) (m14: male rats, day 14): 10.32
- dihomo-gamma-Linolenic acid (C20:cis[8,11,14]3) (ratio treated vs control) (m14: male rats, day 14): 3.40
- 3-Hydroxyindole (ratio treated vs control) (m28: male rats, day 28): 2.05
- 4-Hydroxysphinganine (t18:0, Phytosphingosine), total (ratio treated vs control) (m28: male rats, day 28): 2.04
- Glucuronic acid (ratio treated vs control) (m28: male rats, day 28): 1.20
- Glutamate (ratio treated vs control) (m28: male rats, day 28): 1.80
- Nervonic acid (C24:cis[15]1) (ratio treated vs control) (m28: male rats, day 28): 0.96
- Oleic acid (C18:cis[9]1) (ratio treated vs control) (m28: male rats, day 28): 1.18
- Ornithine (ratio treated vs control) (m28: male rats, day 28): 2.38
- Pantothenic acid (ratio treated vs control) (m28: male rats, day 28): 4.32
- Phosphatidylcholine (C18:0, C18:1) (ratio treated vs control) (m28: male rats, day 28): 1.21
- Pseudouridine (ratio treated vs control) (m28: male rats, day 28): 1.51
- Sphingomyelin (d18:1, C16:0) (ratio treated vs control) (m28: male rats, day 28): 1.34
- Sphingomyelin (d18:2, C18:0) (ratio treated vs control) (m28: male rats, day 28): 0.93
- Xylitol (ratio treated vs control) (m28: male rats, day 28): 10.32
- dihomo-gamma-Linolenic acid (C20:cis[8,11,14]3) (ratio treated vs control) (m28: male rats, day 28): 3.40
- Choline plasmalogen No 02 (putative), treatment ratio versus control [1]: 1.04
- Lysophosphatidylcholine (C17:0), treatment ratio versus control [1]: 0.63
- TAG (C42:9) (DAG-Fragment) (putative), treatment ratio versus control [1]: 0.76
- Choline plasmalogen No 02 (putative), treatment ratio versus control [2]: 1.13
- Lysophosphatidylcholine (C17:0), treatment ratio versus control [2]: 0.89
- TAG (C42:9) (DAG-Fragment) (putative), treatment ratio versus control [2]: 0.72
- Choline plasmalogen No 02 (putative), treatment ratio versus control [3]: 1.13
- Lysophosphatidylcholine (C17:0), treatment ratio versus control [3]: 0.89
- TAG (C42:9) (DAG-Fragment) (putative), treatment ratio versus control [3]: 0.72

Structure (SMILES): CCOC(=O)[C@H](CCc1ccccc1)N[C@@H](C)C(=O)N1[C@H](C(=O)O)C[C@@H]2CCC[C@@H]21 [Ramipril]
- Cytosine, treatment ratio versus control (male rats, day 7, high dose): 0.7 *
- Glutamate, treatment ratio versus control (male rats, day 7, high dose): 0.92 *
- Glycine, treatment ratio versus control (male rats, day 14, high dose, Table 6a ACE inhibitor induced like toxicity): 1.5 *
- Cytosine, treatment ratio versus control (male rats, day 14, high dose): 0.85 *
- Glutamate, treatment ratio versus control (male rats, day 14, high dose): 0.71 *
- Cytosine, treatment ratio versus control (male rats, day 28, high dose): 0.91^
- Glutamate, treatment ratio versus control (male rats, day 28, high dose): 0.61 *
